Legend:
[1] = Appearance of musk in laundry detergent base; format: physicochemical
Experimental: Furthermore, musk lactone mixture A and other musks were also evaluated at two different loadings in laundry detergent base, as shown in Tables 38 and 39.

[2] = In use comparison of musk lactone mixture A with commercial musks in unperfumed laundry detergent, expert panel; set-up: species or system human; details: for DAMP HED / DAMP STR: damp towel; for DAMP HED / DRY TWL 1 DAY HED / DRY TWL 7 DAYS HED / DRY TWL 15 DAYS HED / JAR HED: hedonic; for DAMP STR / DRY TWL 1 DAY STR / DRY TWL 7 DAYS STR / DRY TWL 15 DAYS STR / JAR STR: strength; for DRY TWL 1 DAY HED / DRY TWL 1 DAY STR: dry towel 1 day; for DRY TWL 7 DAYS HED / DRY TWL 7 DAYS STR: dry towel 7 days; for DRY TWL 15 DAYS HED / DRY TWL 15 DAYS STR: dry towel 15 days; for JAR STR: jar (point of purchase)
Experimental: Olfactive evaluations in use were performed by an expert panel. The range of materials evaluated was comprehensive, including musk products commercially available: Nitromusk, Polycyclic and Macrocyclic categories (Ambrettolide, Dihydro Ambrettolide, Scentolide, Muscone, Muscenone, Velvione, Musk Ambrette, Edenolide, Ethylene Brassylate, Galaxolide, Tonalide, Habanolide, Globanone, Macrolide, Oxalide T and others).
Evaluation samples were prepared using unperfumed laundry detergent (formulation example in Example 4, Table 10) at two different dosages: 10% Solution @ 0.8% (yielding 0.08% musk lactone mixture A) or 1.5% (yielding 0.15% musk lactone mixture A) driven by relative product performance in formulas and practical laboratory practices to execute the comparisons. The concentration of musk lactone mixture A in each evaluation was at the same concentration as the commercial musk.
The evaluations were performed in use stages: Jar (POP—Point of purchase), damp towel, Dry towel (1 day) and Storage Dry towel (7 days and 15 days). A five points scale was utilized, rating both strength and hedonic character: • Strength (STR) is rated as the overall scent power coming up from the substrate, due to physicochemical properties and commonly described as a combination of diffusion, bloom, body and or volume perceptions.

Odor strength on blotter = experiment: Odor strength on blotter; set-up: species or system human
Description: The results are presented below in Table 23a and Table 23b:

[3] = Fiber substantivity: odor strength on fabric treated with softener, 14 member-panel; set-up: species or system human; details: 70% in isopropyl myristate dosed 0.25% w/w in softener; line dried 20 hours; 9 (very good) to 0 (very poor)
Experimental: Additionally, substantivity is evaluated olfactively by a panel after treating samples of substrate with a perfumed product, such as a fabric softener for cotton fabric or a shampoo for hair, containing the lactones described herein or other musk fragrances for comparison, according to standard procedures described below. Thus, the evaluation is essentially a relative odor intensity measurement. It is known that the perceived odor intensity of mixtures of perfume ingredients when evaluated as such is generally less than the sum of the perceived odors of the components. Thus, the perceived odor intensity of a 1:1 mixture of 2 of the components of the lactones described herein would be expected to be lower than the sum of the intensities of the separate components, i.e. in such mixtures odor suppression is generally found. On the contrary, the perceived odor intensity on substrate treated with the lactones described herein is at least equal to, but in most cases greater than the perceived intensity of substrate treated with equal amounts of the separate components.
Comparison of the fiber substantivity of single polycyclic musks and macrocyclic musks with musk mixtures is described herein. 70% Solutions in isopropyl myristate of the musks and musk mixtures to be tested are dosed at 0.25% w/w in a single Arquad fabric softener (GT 117B). The test is carried out by rinsing “6″×6” (weight: 16 g) cotton terry towel pieces at ambient temperature in a tergotometer according to the procedure below: • 3 g of fabric softener containing the test musk is added to 1 liter of water and agitated for one minute to disperse. The fabric piece is added and washed for 10 minutes with constant agitation at 100 rpm. On completion of the wash cycle, the pieces are hand wringed and line dried for 20 hours. • The cloths are assessed olfactively by a 14 member-panel. A 10-point scale is used running from 9 (very good) to 0 (very poor).

[4] = 0.04% Musk in laundry detergent base
[5] = 0.08% Musk in laundry detergent base

| Compound | Appearance [1, 4] | Appearance [1, 5] | DAMP HED ([2]; 10% IPM @0.8%) | DAMP STR ([2]; 10% IPM @0.8%) | DRY TWL 1 DAY HED ([2]; 10% IPM @0.8%) | DRY TWL 1 DAY STR ([2]; 10% IPM @0.8%) | DRY TWL 7 DAYS HED ([2]; 10% IPM @0.8%) | DRY TWL 7 DAYS STR ([2]; 10% IPM @0.8%) | DRY TWL 15 DAYS HED ([2]; 10% IPM @0.8%) | DRY TWL 15 DAYS STR ([2]; 10% IPM @0.8%) | JAR STR ([2]; 10% IPM @0.8%) | JAR HED ([2]; 10% IPM @0.8%) | other results |
| --- | --- | --- | --- | --- | --- | --- | --- | --- | --- | --- | --- | --- | --- |
| O=C1CCCCCCCCCCCC(=O)OCCO1 [Ethylene Brassylate, ethylene brassilate] | Very cloudy | Phase separation |  |  |  |  |  |  |  |  |  |  | DAMP HED ([2]; 10% IPM @1.5%): −− /−− ((−−) Significantly inferior); DAMP STR ([2]; 10% IPM @1.5%): −− /−− ((−−) Significantly inferior); DRY TWL 1 DAY HED ([2]; 10% IPM @1.5%): −−/−− ((−−) Significantly inferior); DRY TWL 1 DAY STR ([2]; 10% IPM @1.5%): −−/−− ((−−) Significantly inferior); DRY TWL 7 DAYS HED ([2]; 10% IPM @1.5%): −−/−− ((−−) Significantly inferior); DRY TWL 7 DAYS STR ([2]; 10% IPM @1.5%): −−/−− ((−−) Significantly inferior); DRY TWL 15 DAYS HED ([2]; 10% IPM @1.5%): −−/−− ((−−) Significantly inferior); DRY TWL 15 DAYS STR ([2]; 10% IPM @1.5%): −−/−− ((−−) Significantly inferior); JAR STR ([2]; 10% IPM @1.5%): −−/−− ((−−) Significantly inferior); JAR HED ([2]; 10% IPM @1.5%): −−/−− ((−−) Significantly inferior) |
| O=C1CCCCCCCCCCCCCCCO1 [Hexadecanolide] |  |  |  |  |  |  |  |  |  |  |  |  | ODOR STRENGTH ON BLOTTER, Rating (10-point scale) (Odor strength on blotter): 5.8; ODOR STRENGTH ON FABRIC TREATED WITH SOFTENER, Rating (10-point scale) [3]: 4.8 |
| CC1CC=CCCCCCCCCCC(=O)C1 (centres unmarked) [MUSCENONE, muscenone] |  |  | ++ | + ((+) directionally superior) | ++/++ | ++/++ | ++/++ | ++/++ | ++/++ | ++/++ | + ((+) directionally superior) | ++ |  |
| C[C@@H]1CCCCCCCCCCCCC(=O)C1 [MUSCONE, Muscone] |  |  | + ((+) directionally superior) | ++ | ++ | + ((+) directionally superior) | ++ | + ((+) directionally superior) | ++ | + ((+) directionally superior) | ++/++ | ++/++ |  |
| O=C1CCCCCCCCOCCCCCCO1 [OXALIDE T, Oxalide T] |  |  | 0/0 (comparable) | 0/0 ((0) comparable) | 0/0 (comparable) | 0/0 ((0) comparable) | 0/0 (comparable) | 0/0 ((0) comparable) | 0/0 (comparable) | 0/0 ((0) comparable) | 0 ((0) comparable) | − ((−) directionally inferior) |  |
| CC(=O)c1cc2c(cc1C)C(C)(C)C(C)CC2(C)C (centres unmarked) [Tonalid, tonalid] |  |  |  |  |  |  |  |  |  |  |  |  | ODOR STRENGTH ON BLOTTER, Rating (10-point scale) (Odor strength on blotter): 8.2; ODOR STRENGTH ON FABRIC TREATED WITH SOFTENER, Rating (10-point scale) [3]: 7.2 |
| O=C1CCCCCCCCCCCCCCCO1 [dihydroambrettolide] | Very cloudy | Phase separation | + ((+) directionally superior) | 0 ((0) comparable) | + ((+) directionally superior) | 0 ((0) comparable) | + ((+) directionally superior) | 0 ((0) comparable) | + ((+) directionally superior) | 0 ((0) comparable) | 0 ((0) comparable) | − ((−) directionally inferior) |  |
| CC1CCCCCCCCCCCCC(=O)C1 (stereo not drawn) [l-muscone, muscone laevo] | Very cloudy | Phase separation |  |  |  |  |  |  |  |  |  |  |  |
| COc1c(C(C)(C)C)cc([N+](=O)[O-])c(C)c1[N+](=O)[O-] [musk ambrette] |  |  | − ((−) directionally inferior) | ++ | 0 (comparable) | + ((+) directionally superior) | 0 (comparable) | + ((+) directionally superior) | 0 (comparable) | + ((+) directionally superior) | ++ | − ((−) directionally inferior) |  |
| CC(=O)c1cc2c(cc1C)C(C)(C)C(C)CC2(C)C (centres unmarked) [tonalide/fixolide] | Very cloudy | Phase separation |  |  |  |  |  |  |  |  |  |  |  |
| O=C1CCC/C=C\CCCCCCCCCC1 [velvione] | Very cloudy | Phase separation | +/+ ((+) directionally superior) | +/+ ((+) directionally superior) | ++/++ | ++/++ | ++/++ | ++/++ | ++/++ | ++/++ | + ((+) directionally superior) | 0 (comparable) |  |
| Edenolide |  |  | −/− ((−) directionally inferior) | −/− ((−) directionally inferior) | 0/0 (comparable) | 0/0 ((0) comparable) | 0/0 (comparable) | 0/0 ((0) comparable) | 0/0 (comparable) | 0/0 ((0) comparable) | 0/0 ((0) comparable) | 0/0 (comparable) |  |
| Scentolide |  |  | 0 / 0 (comparable) | 0 / 0 ((0) comparable) | −/− ((−) directionally inferior) | −/− ((−) directionally inferior) | −/− ((−) directionally inferior) | −/− ((−) directionally inferior) | −/− ((−) directionally inferior) | −/− ((−) directionally inferior) | 0/0 ((0) comparable) | 0/0 (comparable) |  |

Source: patent US11639483B2, “Macrocyclic musk lactones and uses thereof” (PHYTO TECH CORP., priority 2021, dated 2023)
